# Assay results published in US5438130A, “Fucosylated guanosine disulfates as excitatory amino acid antagonists” (priority 1993, dated 1995).
# Like-named read-outs stand apart in the source and are kept apart here.
# How the values were obtained:
# [1] = in vivo; cited from earlier work
# [2] = test system: delayed neuronal degeneration following transient forebrain ischemia; conditions: cited from earlier work
# [3] = in vivo; cited from earlier work; remark: listed apart in the source
# stroke = conditions: cited from earlier work
# kainate receptors = test: Voltage clamp of kainate-elicited currents in fish retinal horizontal cells; type: cell-based
# Description: In this experiment, kainate currents were obtained from primary cultures of fish retinal horizontal cells using standard whole cell voltage clamp techniques [Hamill, O. P. et al. Pflugers Archives 391:85 (1981)]. For recordings cells were maintained in a physiological saline containing (in mM) NaCl, 145; KCl, 2.5; CaCl2, 2.5; MgSO4, 1.0; glucose, 10; HEPES, 10, pH 7.5). Cells were held near resting potential (Vh =-60 mV). Kainate current was elicited by superfusion of a solution of physiological saline solution containing 25μM kainate.
# (§1) Two sets of experiments were conducted to determine the concentration dependence of both kainate and quisqualate currents to HF7. Each experiment was conducted in a manner similar to that in which the FIG. 4 experiment was conducted. Inward currents were elicited by bath perfusion of either 25μM kainate or by 10μM quisqualate. Six doses of HF7 were utilized for each set of experiments. Each dose was tried on three different cells. Responses to HF7 were calculated as a percent of control kainate current. […] Each point in FIG. 5 is the mean of measurement from three different cells.
# [4] = test system: L-type calcium currents in N1E-115 murine neuroblastoma cells; test: L-type calcium currents in N1E-115 neuroblastoma cells, whole cell voltage clamp; type: cell-based
# Protocol: (§2) L-type calcium currents were obtained from cultured N1E-115 murine neuroblastoma cells using standard whole cell voltage clamp techniques [Hamill, O. P. et al. Pflugers Archives 391:85 (1981)]. For recording inward currents, external calcium was substituted with barium. Cells were maintained in a external recording solution containing TEA.Cl, 130 mM; BaCl2, 5 mM; glucose, 10 mM; HEPES, 10 mM; tetrodotoxin, 1μM; pH 7.4). The pipette solution contained CsCl, 115 mM; EGTA, 10 mM; HEPES, 10 mM; Mg.ATP, 4 mM.
# The results from one experiment can be seen in FIG. 6. A depolarizing test pulse to +10 mV elicited an inward current of ~240 pA, which was reduced by 20% by pressure-ejection (6 psi) of 22μM HF7. The effects of HF7 blockade were partially reversible (60% recovery) subsequent to washout of HF7. The voltage protocol is shown in the inset. Cells were held at Vh =-50 mV. L-type currents were evoked following a depolarizing voltage step to +10 mV.
# (§3) Two sets of experiments were conducted to determine the concentration dependence of both L- and T-type calcium currents to HF7. Each experiment was conducted in a manner similar to that in which the FIG. 6 experiment was performed. Inward L-type currents were elicited by depolarizing test pulses to +10 mV from a resting potential of -50 mV. Inward T-type currents were elicited by depolarizing test pulses to -25 mV from a resting potential of -90 mV. Six doses of HF7 were utilized for each set of experiments. Each dose was tried on three different cells. Responses to HF7 were calculated as percent inhibition of control current. Negative values represent current levels that were greater than control.
# kainate receptor [5] = test: Displacement of [3H]-kainate, rat forebrain crude synaptic membranes; conditions: 50 mM Tris-acetate; 1 hour at 4° C.; FIG. 3; read-out: IC50, displacement of [3H]-kainate binding
# Protocol: The ability of HF7 to block the kainate receptor was tested using a [^3 H]-kainate binding assay. More specifically, a standard receptor binding assay [London, E. D. et al. Molecular Pharmacol. 15:492 (1979)] was performed to determine the extent to which HF7 could displace the binding of radioactive kainate ([^3 H]-kainate, 1.0 mCi/ml, NEN). The membrane source was frozen rat forebrain crude synaptic membranes treated with detergent (0.01% TRITON-X100). Radioligand binding was determined using 50 mM Tris-acetate buffer. Samples were incubated for 1 hour at 4° C. and then filtered over either Whatman GF/B or Schleicher & Schuell glass filters. Non-specific binding was determined using 10^-4 M glutamate. [^3 H]-kainate binding was linear from 50-400 μg protein/tube.
# [6] = test system: quisqualate currents in fish horizontal cells; test: Voltage clamp of quisqualate-elicited currents in fish retinal horizontal cells; type: cell-based; conditions: quisqualate 10μM
# Protocol: as §1
# [7] = test system: glutamate-induced current; test: Whole cell recording of glutamate-induced current under voltage clamp (HPLC fraction assay); type: cell-based; conditions: HF7 peak, voltage clamp mode
# Protocol: The components were eluted from the column stepwise with 0%, 2% and 4% acetonitrile in 0.1% TFA for the duration of 45 min., 15 min. and 40 min., respectively, at a flow rate of 2 ml/min. The elution was monitored by absorbance at 214 nm (FIG. 2) and 254 nm. According to the elution profile, fractions were collected manually and, after being dried down and dissolved in an appropriate buffer, were assayed in whole cell recording of glutamate-induced current under the voltage clamp mode (see "Functional Characterization" below for details). […] The other batch of HF7 was also purified with a slightly different program of acetonitrile stepwise elution (1% for 20 min., 2% for 20 min. and 4% for 40 min.), resulting in a shorter operation time without a significant change in the elution profile.
# [8] = test system: T-type calcium currents in N1E-115 murine neuroblastoma cells; test: T-type calcium currents in N1E-115 neuroblastoma cells, whole cell voltage clamp; type: cell-based; conditions: -90 mV to -25 mV; especially between 0 and 90μM; FIG. 7
# Protocol: as §2, §3
# [9] = test system: ionic currents elicited by glutamate in fish retinal neurons; test: Voltage clamp of glutamate-elicited currents in fish retinal neurons; type: cell-based; conditions: glutamate 50μM
# kainate receptor [10] = conditions: printed for comparison; source not stated; read-out: IC50 (comparison, non-NMDA antagonists); cited from earlier work
smiles,measurement,setting,value
"NS(=O)(=O)c1cccc2c1c([N+](=O)[O-])cc1nc(O)c(O)nc12 [NBQX, 2,3-dihydroxy-6-nitro-7-sulfamoyl-benzo(F)quinoxaline]",crossing of the blood-brain barrier,[1],only in minute amounts
same,protection on delayed administration,[2]; administered several hours after the ischemic insult,protection was observed
same,prevention of delayed neuronal degeneration following transient forebrain ischemia,"[2]; gerbils and rats, relatively large systemic doses",dramatically effective
COCCOC(=O)C1=C(C)NC(C)=C(C(=O)OC(C)C)C1c1cccc([N+](=O)[O-])c1 (stereo not shown) [nimodipine],toxicity relative to NMDA antagonists,[3],less toxic than the NMDA antagonists
same,improvement in the outcome of stroke,stroke; clinical trials,Modest improvement
same,cardiovascular side effects,stroke; in vivo,significant cardiovascular side effects
CC(=O)OC1C(C)OC(O[C@@H]2[C@H](OS(=O)(=O)O)[C@@H](COS(=O)(=O)O)O[C@H]2n2cnc3c(=O)[nH]c(N)nc32)C(O)C1O (stereo partly shown) [HF7],effect on kainate-elicited inward current,"kainate receptors; approximately 180μM HF7, pressure-ejection, Vh = -60 mV, kainate 25μM",virtually eliminated
same,inhibition of ionic currents elicited by kainate,kainate receptors; kainate 25μM,reversibly inhibited
same,IC50,"kainate receptors; kainate 25μM, mean of three cells per dose, FIG. 5, read-out: IC50, kainate current",~60 µM
same,reversibility of HF7 blockade of kainate current,kainate receptors; subsequent to washout,fully reversible
same,inhibition of the kainate response,"kainate receptors; ~200μM HF7, FIG. 4, kainate 25μM",near-complete inhibition
same,reduction of L-type inward current,"[4]; 22μM HF7, Vh = -50 mV, test pulse to +10 mV, FIG. 6",20%
same,recovery of L-type current after washout,"[4]; subsequent to washout of 22μM HF7, partially reversible",60%
same,concentration dependence of L-type current inhibition,"[4]; throughout the concentration range used, -50 mV to +10 mV, FIG. 7",inhibited in a concentration dependent manner
same,IC50,kainate receptor [5],~20.7 µM
same,inhibition of ionic currents elicited by quisqualate,[6],reversibly inhibited
same,IC50,"[6]; mean of three cells per dose, FIG. 5, read-out: IC50, quisqualate current",~60 µM
same,activity on glutamate-induced current,[7],found to be active
same,effect on T-type current,[8],much more variable
same,inhibition of ionic currents elicited by glutamate,[9],reversibly inhibited
O=c1[nH]c2cc([N+](=O)[O-])c([N+](=O)[O-])cc2[nH]c1=O [DNQX],IC50,kainate receptor [10],~2 µM
N#Cc1cc2[nH]c(=O)c(=O)[nH]c2cc1[N+](=O)[O-] [CNQX],IC50,kainate receptor [10],~2 µM
